The results in this text go back to patent US10196403B2, “Compounds and compositions and uses thereof” (Sunovion Pharmaceuticals Inc., priority 2016, dated 2019).

For the test, the system named is mice. Briefly: Neuropharmacological Assay (SmartCube). The format is in vivo. Conditions: for minimal effective dose: Mus musculus, MED = dose having 50% or more total activity in SmartCube, read-out: POTENCY (minimal effective dose, MED); for AD: ADHD (SmartCube probability) / AG: analgesic (SmartCube probability) / AX: anxiolytic (SmartCube probability) / CE: cognitive enhancer (SmartCube probability) / DP: anti-depressant (SmartCube probability) / MS: mood stabilizer (SmartCube probability) / PS: anti-psychotic (SmartCube probability) / SD: sedative hypnotic (SmartCube probability) / UN: uncharacterized CNS activity (SmartCube probability): mice, i.p. 15 min before test, most efficacious dose(s) of 3 doses. The source says: Neuropharmacological Assay (SmartCube™)
Neurosci. 2011 Sep. 9; 5:103 (doi: 10.3389/fnins.2011.00103) (“Roberds”). As reported in Roberds, because psychiatric diseases generally result from disorders of cell-cell communication, circuitry, intact systems are useful in detecting improvement in disease-relevant endpoints. These endpoints are typically behavioral in nature, often requiring human observation and interpretation. To facilitate testing of multiple compounds for behavioral effects relevant to psychiatric disease, PsychoGenics, Inc. (Tarrytown, N.Y., “PGI”) developed SmartCube™, an automated system in which behaviors of compound-treated mice are captured by digital video and analyzed with computer algorithms. (D. Brunner et al., Drug Discov. Today 2002, 7:S107-S112). PGI Analytical Systems uses data from SmartCube™ to compare the behavioral signature of a test compound to a database of behavioral signatures obtained using a large set of diverse reference compounds. (The composition of the database as well as validation of the method is further described in Roberds). In this way, the neuropharmacological effects of a test compound can be predicted by similarity to major classes of compounds, such as antipsychotics, anxiolytics and antidepressants.
The SmartCube™ system produces an activity signature indicating the probability that the activity of the test compound at the administered dose matches a given class of neuropharmacological agents. (See, e.g., Roberds, FIGS. 2 and 3). The test compound is simultaneously compared against multiple classes of agents; thus, a separate probability is generated for each behavioral effect measured (e.g., anxiolytic activity, analgesic activity, etc.). In the table below, these probabilities are reported for each behavioral effect measured as follows:
where LOQ is the limit of quantification.
Provided compounds were dissolved in a mixture of Pharmasolve™ (N-methyl-2-pyrrolidone), polyethylene glycol and propylene glycol, and were injected i.p. 15 min. before the behavioral test. For each compound, injections were administered at 3 different doses. For each behavioral effect measured, results for the most efficacious dose(s) are presented. In the table below, DP: anti-depressant; AX: anxiolytic; SD: sedative hypnotic; PS: anti-psychotic; MS: mood stabilizer; AD: ADHD; CE: cognitive enhancer; AG: analgesic; UN: uncharacterized CNS activity.
The potency of many of the compounds in the table was also determined in the SmartCube™ system. Test compounds were routinely examined at dose levels of 0.3, 1, 3 10 and 30 mg per kg (mpk), although the dose range was increased or decreased if necessary to obtain a full dose response curve. A compound's minimal effective dose (MED) is a measure of the compounds potency. The MED was defined as the dose (in mpk) having 50% or more total activity in SmartCube.

One may read the minimal effective dose as the smallest amount tested that counted as effective.

With `CNC[C@H]1OCCc2cc(F)ccc21` [Example 16, (S)-1-(6-fluoroisochroman-1-yl)-N-methylmethanamine], the minimal effective dose fell in the range of 10 to 30 mg/kg, the “AD: ADHD (SmartCube probability)” value was “+ (LOQ≤ + <5%)”, the “AG: analgesic (SmartCube probability)” value is on record as “++ (5%≤ ++ <25%)” and the “AX: anxiolytic (SmartCube probability)” value is “++ (5%≤ ++ <25%)”. Further, the “CE: cognitive enhancer (SmartCube probability)” value (“CE: cognitive enhancer” for short) was “+ (LOQ≤ + <5%)”, the “DP: anti-depressant (SmartCube probability)” value (“DP: anti-depressant” below) was “++ (5%≤ ++ <25%)”, the “MS: mood stabilizer (SmartCube probability)” value (“MS: mood stabilizer” below) is “+ (LOQ≤ + <5%)” and the “PS: anti-psychotic (SmartCube probability)” value (“PS: anti-psychotic” below) is reported as “+++ (25%≤ +++ <50%)”. Also, the “SD: sedative hypnotic (SmartCube probability)” value (shortened to “SD: sedative hypnotic”) is on record as “++ (5%≤ ++ <25%)” and the “UN: uncharacterized CNS activity (SmartCube probability)” value (“UN: uncharacterized CNS activity” below) was “+ (LOQ≤ + <5%)”.

With `CNC[C@H]1OCCc2c(F)cccc21` [Example 18, (S)-1-(5-fluoroisochroman-1-yl)-N-methylmethanamine], the minimal effective dose lay in the range of 10 to 30 mg/kg, the “AD: ADHD (SmartCube probability)” value was “+ (LOQ≤ + <5%)”, the “AG: analgesic (SmartCube probability)” value is listed as “++ (5%≤ ++ <25%)” and the “AX: anxiolytic (SmartCube probability)” value was “++ (5%≤ ++ <25%)”. Moreover, the “CE: cognitive enhancer” value is “++ (5%≤ ++ <25%)”, the “DP: anti-depressant” value is listed as “++ (5%≤ ++ <25%)”, the “MS: mood stabilizer” value is reported as “+ (LOQ≤ + <5%)” and the “PS: anti-psychotic” value is recorded as “+ (LOQ≤ + <5%)”. The “SD: sedative hypnotic” value is “+ (LOQ≤ + <5%)” and the “UN: uncharacterized CNS activity” value is recorded as “++ (5%≤ ++ <25%)”.

Turning to `CNC[C@H]1OC[C@@H](C)c2ccccc21` [Example 19, N-methyl-1-((1S,4S)-4-methylisochroman-1-yl)methanamine], the minimal effective dose is 3 to 10 mg/kg, the “AD: ADHD (SmartCube probability)” value is given as “+ (LOQ≤ + <5%)”, the “AG: analgesic (SmartCube probability)” value is “++ (5%≤ ++ <25%)” and the “AX: anxiolytic (SmartCube probability)” value is given as “++ (5%≤ ++ <25%)”. For the same compound, the “CE: cognitive enhancer” value is reported as “++ (5%≤ ++ <25%)”, the “DP: anti-depressant” value was “++ (5%≤ ++ <25%)”, the “MS: mood stabilizer” value is listed as “++ (5%≤ ++ <25%)” and the “PS: anti-psychotic” value was “++ (5%≤ ++ <25%)”. Also, the “SD: sedative hypnotic” value is recorded as “+ (LOQ≤ + <5%)” and the “UN: uncharacterized CNS activity” value is “++ (5%≤ ++ <25%)”.

Take `CNC[C@@H]1OC[C@@H](C)c2ccccc21` [Example 20, N-methyl-1-((1R,4S)-4-methylisochroman-1-yl)methanamine]: the minimal effective dose is less than 3 mg/kg, the “AD: ADHD (SmartCube probability)” value was “+ (LOQ≤ + <5%)”, the “AG: analgesic (SmartCube probability)” value is listed as “+ (LOQ≤ + <5%)” and the “AX: anxiolytic (SmartCube probability)” value is “++ (5%≤ ++ <25%)”. Moreover, the “CE: cognitive enhancer” value is recorded as “++ (5%≤ ++ <25%)”, the “DP: anti-depressant” value is on record as “++ (5%≤ ++ <25%)”, the “MS: mood stabilizer” value is listed as “+ (LOQ≤ + <5%)” and the “PS: anti-psychotic” value is recorded as “++++ (50%≤ ++++)”. In addition, the “SD: sedative hypnotic” value is on record as “++ (5%≤ ++ <25%)” and the “UN: uncharacterized CNS activity” value is listed as “++++ (50%≤ ++++)”.

In the case of `CNC[C@H]1OC[C@@H](F)c2ccccc21` [Example 21, 1-((1S,4S)-4-fluoroisochroman-1-yl)-N-methylmethanamine], the minimal effective dose lay within 3 to 10 mg/kg, the “AD: ADHD (SmartCube probability)” value is given as “+ (LOQ≤ + <5%)”, the “AG: analgesic (SmartCube probability)” value is “+++ (25%≤ +++ <50%)” and the “AX: anxiolytic (SmartCube probability)” value was “++ (5%≤ ++ <25%)”. Also, the “CE: cognitive enhancer” value was “++ (5%≤ ++ <25%)”, the “DP: anti-depressant” value is “++ (5%≤ ++ <25%)”, the “MS: mood stabilizer” value is “+ (LOQ≤ + <5%)” and the “PS: anti-psychotic” value is recorded as “++ (5%≤ ++ <25%)”. Further, the “SD: sedative hypnotic” value is recorded as “++ (5%≤ ++ <25%)” and the “UN: uncharacterized CNS activity” value is reported as “+++ (25%≤ +++ <50%)”.

Take `CNC[C@@H]1OC[C@H](F)c2ccccc21` [Example 22, 1-((1R,4R)-4-fluoroisochroman-1-yl)-N-methylmethanamine]: the minimal effective dose was less than 3 mg/kg, the “AD: ADHD (SmartCube probability)” value is “+ (LOQ≤ + <5%)”, the “AG: analgesic (SmartCube probability)” value was “++ (5%≤ ++ <25%)” and the “AX: anxiolytic (SmartCube probability)” value is on record as “++ (5%≤ ++ <25%)”. In addition, the “CE: cognitive enhancer” value is reported as “++ (5%≤ ++ <25%)”, the “DP: anti-depressant” value was “+++ (25%≤ +++ <50%)”, the “MS: mood stabilizer” value is recorded as “++ (5%≤ ++ <25%)” and the “PS: anti-psychotic” value is recorded as “+++ (25%≤ +++ <50%)”. For the same compound, the “SD: sedative hypnotic” value is “++ (5%≤ ++ <25%)” and the “UN: uncharacterized CNS activity” value is on record as “+ (LOQ≤ + <5%)”.

Turning to `CNC[C@H]1OCC(C)(C)c2ccccc21` [Example 23, (S)-1-(4,4-dimethylisochroman-1-yl)-N-methylmethanamine], the minimal effective dose was in the range of 3 to 10 mg/kg, the “AD: ADHD (SmartCube probability)” value is “+ (LOQ≤ + <5%)”, the “AG: analgesic (SmartCube probability)” value was “++ (5%≤ ++ <25%)” and the “AX: anxiolytic (SmartCube probability)” value is on record as “++ (5%≤ ++ <25%)”. The “CE: cognitive enhancer” value is on record as “++ (5%≤ ++ <25%)”, the “DP: anti-depressant” value is “++ (5%≤ ++ <25%)”, the “MS: mood stabilizer” value is “+ (LOQ≤ + <5%)” and the “PS: anti-psychotic” value is reported as “+++ (25%≤ +++ <50%)”. Also, the “SD: sedative hypnotic” value is “++ (5%≤ ++ <25%)” and the “UN: uncharacterized CNS activity” value is on record as “+ (LOQ≤ + <5%)”.

Turning to `CNC[C@@H]1OCC(C)(C)c2ccccc21` [Example 24, (R)-1-(4,4-dimethylisochroman-1-yl)-N-methylmethanamine], the minimal effective dose is less than 3 mg/kg, the “AD: ADHD (SmartCube probability)” value was “+ (LOQ≤ + <5%)”, the “AG: analgesic (SmartCube probability)” value is recorded as “++ (5%≤ ++ <25%)” and the “AX: anxiolytic (SmartCube probability)” value is “++ (5%≤ ++ <25%)”. The “CE: cognitive enhancer” value is “++ (5%≤ ++ <25%)”, the “DP: anti-depressant” value is “++ (5%≤ ++ <25%)”, the “MS: mood stabilizer” value is “+ (LOQ≤ + <5%)” and the “PS: anti-psychotic” value is recorded as “+++ (25%≤ +++ <50%)”. The “SD: sedative hypnotic” value is “++ (5%≤ ++ <25%)” and the “UN: uncharacterized CNS activity” value was “+++ (25%≤ +++ <50%)”.

As for `CNC[C@H]1OCCc2cccc(F)c21` [Example 25, (S)-1-(8-fluoroisochroman-1-yl)-N-methylmethanamine], the minimal effective dose lay within 3 to 10 mg/kg, the “AD: ADHD (SmartCube probability)” value is “+ (LOQ≤ + <5%)”, the “AG: analgesic (SmartCube probability)” value is recorded as “++ (5%≤ ++ <25%)” and the “AX: anxiolytic (SmartCube probability)” value is reported as “+ (LOQ≤ + <5%)”. In addition, the “CE: cognitive enhancer” value is on record as “++ (5%≤ ++ <25%)”, the “DP: anti-depressant” value is given as “+++ (25%≤ +++ <50%)”, the “MS: mood stabilizer” value is recorded as “+ (LOQ≤ + <5%)” and the “PS: anti-psychotic” value was “++ (5%≤ ++ <25%)”. Besides, the “SD: sedative hypnotic” value was “++ (5%≤ ++ <25%)” and the “UN: uncharacterized CNS activity” value is reported as “+ (LOQ≤ + <5%)”.

In the case of `CNC[C@H]1OCC(F)(F)c2ccccc21` [Example 27, (S)-1-(4,4-difluoroisochroman-1-yl)-N-methylmethanamine], the minimal effective dose was 10 to 30 mg/kg, the “AD: ADHD (SmartCube probability)” value was “+ (LOQ≤ + <5%)”, the “AG: analgesic (SmartCube probability)” value is reported as “++ (5%≤ ++ <25%)” and the “AX: anxiolytic (SmartCube probability)” value is reported as “++ (5%≤ ++ <25%)”. Further, the “CE: cognitive enhancer” value is given as “++ (5%≤ ++ <25%)”, the “DP: anti-depressant” value is “++ (5%≤ ++ <25%)”, the “MS: mood stabilizer” value is recorded as “+ (LOQ≤ + <5%)” and the “PS: anti-psychotic” value is given as “+ (LOQ≤ + <5%)”. For the same compound, the “SD: sedative hypnotic” value is “+ (LOQ≤ + <5%)” and the “UN: uncharacterized CNS activity” value is given as “+++ (25%≤ +++ <50%)”.
